Earlier results on 1 compound are cited in US20230095832A1, “ADHESION BARRIER COMPOSITION, METHODS OF FABRICATION AND USE THEREOF” (SPOROGENICS PTE. LTD., priority 2020, published 2023).

Each structure is given as a SMILES string.

The subject of the data set is intra-abdominal adhesions.

Take `O=C(O)c1cc(O)c(O)c(O)c1` [gallic acid]: where the note is “further studies”, the “IL-6, TNF-α, TGF-b1 serum levels and NF-kB phosphorylation” value is recorded as “significantly reduced”. The intra-abdominal adhesions entry (rats, compared to a control) is listed as “decrease intra-abdominal adhesions”.
